Results published in ChEMBL document CHEMBL5120864, “Targeting Enhancer of Zeste Homolog 2 for the Treatment of Hematological Malignancies and Solid Tumors: Candidate Structure-Activity Relationships Insights and Evolution Prospects” (J Med Chem, 2022).

Columns and labels:
WSUDLCL2 = assay: cells; type: functional, cell-based; conditions: Homo sapiens
[1] = molecular target: Histone-lysine N-methyltransferase EZH2 (Homo sapiens, UniProt Q15910, Y641F)
[2] = molecular target: T1, Histone-lysine N-methyltransferase EZH2 (Homo sapiens, UniProt Q15910)
T1 sequence (Q15910 whole entry): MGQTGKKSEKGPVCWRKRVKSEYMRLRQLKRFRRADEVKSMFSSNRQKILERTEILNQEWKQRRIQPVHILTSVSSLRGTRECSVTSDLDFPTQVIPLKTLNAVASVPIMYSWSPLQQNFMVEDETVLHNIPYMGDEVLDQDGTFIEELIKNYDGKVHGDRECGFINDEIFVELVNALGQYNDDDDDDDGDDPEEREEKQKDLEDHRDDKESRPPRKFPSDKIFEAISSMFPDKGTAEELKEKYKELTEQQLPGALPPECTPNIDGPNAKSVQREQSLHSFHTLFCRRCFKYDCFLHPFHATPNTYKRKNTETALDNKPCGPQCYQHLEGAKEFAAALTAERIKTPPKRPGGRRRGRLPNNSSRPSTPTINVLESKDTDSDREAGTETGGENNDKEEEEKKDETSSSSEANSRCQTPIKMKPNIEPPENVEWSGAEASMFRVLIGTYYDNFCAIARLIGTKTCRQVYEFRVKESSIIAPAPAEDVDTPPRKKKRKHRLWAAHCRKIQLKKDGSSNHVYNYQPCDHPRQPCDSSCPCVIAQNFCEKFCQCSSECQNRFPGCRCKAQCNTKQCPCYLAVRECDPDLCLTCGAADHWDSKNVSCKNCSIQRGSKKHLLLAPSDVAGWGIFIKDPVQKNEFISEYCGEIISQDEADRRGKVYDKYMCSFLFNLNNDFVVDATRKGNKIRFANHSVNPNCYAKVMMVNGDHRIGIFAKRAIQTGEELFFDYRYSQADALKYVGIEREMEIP

[3] = molecular target: T1, Histone-lysine N-methyltransferase EZH2; remark: listed apart in the source
[4] = molecular target: Histone-lysine N-methyltransferase EZH2 (Homo sapiens, UniProt Q15910, Y641N)
Chain of Histone-lysine N-methyltransferase EZH2 (Homo sapiens, UniProt Q15910, Y641N) (Q15910 whole entry Y641N): as the sequence (Q15910 whole entry) above, with Y641N counted along it

KARPAS-422 [5] = assay: cells; type: functional; conditions: Homo sapiens
HeLa = assay: cells; type: functional, cell-based; conditions: Homo sapiens
[6] = molecular target: T2, Protein cereblon/Histone-lysine N-methyltransferase EZH2 (Homo sapiens, UniProt Q15910+Q96SW2); type: cell-based, OCILY7
T2 sequence (Q15910 whole entry): as the sequence (Q15910 whole entry) above
T2 sequence (Q96SW2 whole entry): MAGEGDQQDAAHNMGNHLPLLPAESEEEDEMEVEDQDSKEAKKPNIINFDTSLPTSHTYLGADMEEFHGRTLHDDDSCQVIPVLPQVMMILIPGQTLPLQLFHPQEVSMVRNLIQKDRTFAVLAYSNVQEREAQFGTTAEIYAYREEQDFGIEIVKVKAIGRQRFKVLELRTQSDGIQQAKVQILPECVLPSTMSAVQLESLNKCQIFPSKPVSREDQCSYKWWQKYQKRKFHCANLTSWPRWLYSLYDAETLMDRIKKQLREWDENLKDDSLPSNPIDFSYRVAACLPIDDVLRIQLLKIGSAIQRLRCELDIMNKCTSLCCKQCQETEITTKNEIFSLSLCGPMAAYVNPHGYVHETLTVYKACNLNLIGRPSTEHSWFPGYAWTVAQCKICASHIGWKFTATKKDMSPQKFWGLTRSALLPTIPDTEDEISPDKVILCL

[7] = molecular target: T2, Protein cereblon/Histone-lysine N-methyltransferase EZH2; type: cell-based, DOHH-2
SU-DHL-6 = assay: cells; type: functional, cell-based; conditions: Homo sapiens
Pfeiffer = assay: cells; type: functional, cell-based; conditions: Homo sapiens
[8] = molecular target: T1, Histone-lysine N-methyltransferase EZH2; remark: listed apart in the source
MCF7 = assay: cells; type: functional, cell-based; conditions: Homo sapiens, MCF7, 24 h
PC-3 = assay: cells; type: functional, cell-based; conditions: Homo sapiens, PC-3, 24 h
HepG2 = assay: cells; type: functional, cell-based; conditions: Homo sapiens, HepG2, 24 h
KARPAS-422 [9] = assay: cells; type: functional, cell-based; conditions: Homo sapiens
[10] = molecular target: T1, Histone-lysine N-methyltransferase EZH2; remark: listed apart in the source
MDA-MB-231 = assay: cells; type: functional, cell-based; conditions: Homo sapiens, MDA-MB-231, 72 h

Chain of Histone-lysine N-methyltransferase EZH2 (Homo sapiens, UniProt Q15910, Y641F) (Q15910 whole entry Y641F): as the sequence (Q15910 whole entry) above, with Y641F counted along it

CCN(c1cc(C#CCN2CCOCC2)cc(C(=O)NCc2c(C)cc(C)[nH]c2=O)c1C)[C@H]1CC[C@H](N(C)CCOC)CC1
IC50 (WSUDLCL2): 385 nM

CCN(c1cc(C#CC2CCN(C)CC2)cc(C(=O)NCc2c(C)cc(C)[nH]c2=O)c1C)C1CCOCC1
IC50 [1]: 8.4 nM

COc1cc(C)[nH]c(=O)c1CNC(=O)c1c(C)n([C@H](C)C2CCN(CC(C)(F)F)CC2)c2ccccc12
IC50 [1]: < 1 nM | IC50 [2]: < 1 nM

CCN(c1cc(Br)cc(C(=O)NCc2c[nH]c(C)cc2=O)c1C)[C@H]1CC[C@H](N(C)C)CC1
IC50 [3]: 40 nM

CCN(c1cc(-c2ccc(CN3CCOCC3)cc2)cc(C(=O)NCc2c(Cl)cc(C)c[n+]2[O-])c1C)C1CCOCC1
IC50 [3]: < 100 nM

C=CCC1(S(=O)(=O)N2CC(C)c3c(C(=O)NCc4c(C)cc(C)[nH]c4=O)cc(-c4ccc(N5CCN(C)CC5)nc4)cc32)CC1 (stereo unspecified)
IC50 [1]: 1530 nM | IC50 [4]: 1530 nM

CSc1cc(C)[nH]c(=O)c1CN1CCc2c(Cl)c3c(c(C)c2C1=O)O[C@@](C)([C@H]1CC[C@H](N(C)C)CC1)O3
GI50 (KARPAS-422 [5]): 5.7 nM | EC50 (HeLa): 0.849 nM

C=CC(=O)Nc1nn(C(C)c2ccccc2)c(C)c1C(=O)NCc1c(C)cc(C)[nH]c1=O (stereo unspecified)
IC50 [3]: 64 nM

C=CCC1(S(=O)(=O)N2CCc3c(C(=O)NCc4c(C)cc(C)[nH]c4=O)cc(-c4ccc(N5CCN(C)CC5)nc4)cc32)CC1
IC50 [1]: 2590 nM | IC50 [4]: 2590 nM

CCCc1cc(C)[nH]c(=O)c1CNC(=O)c1cc(-c2ccc(N3CCNCC3)cc2)cc2c1ccc(=O)n2C(CC)CC
IC50 [1]: 9 nM | IC50 [2]: 11 nM

C=CCC1(S(=O)(=O)n2cc(C)c3c(C(=O)NCc4c(OC)cc(C)[nH]c4=O)cc(-c4ccc(N5CCN(C)CC5)nc4)cc32)CC1
IC50 [1]: 5 nM | IC50 [4]: 27000 nM

CCN(c1cc(-c2ccc(CN3CCN(C(=O)CCCCCNc4cccc5c4C(=O)N(C4CCC(=O)NC4=O)C5=O)CC3)cc2)cc(C(=O)NCc2c(C)cc(C)[nH]c2=O)c1C)C1CCOCC1 (stereo unspecified)
IC50 [6]: 100 nM | IC50 [7]: 100 nM

CCN(c1cc(-c2ccc(CN3CCOCC3)cc2)cc(C(=O)NCc2c3c(c(C)[nH]c2=O)CCCCCC3)c1C)C1CCOCC1
IC50 (SU-DHL-6): > 30000 nM | IC50 (Pfeiffer): 21000 nM

CCc1c(C(=O)NCc2c(C)cc(C)[nH]c2=O)cc2c(cnn2C)c1N(CC)[C@H]1CC[C@H](N2CC(OC)C2)CC1
IC50 (Pfeiffer): 76 nM

CSc1cc(C)[nH]c(=O)c1CNC(=O)c1cc(Cl)c2c(c1C)O[C@@](C)([C@H]1CC[C@H](N(C)C)CC1)O2
GI50 (KARPAS-422 [5]): 4 nM | EC50 (HeLa): 0.51 nM

Cc1cc(C)c(CNC(=O)c2cnn(C(C)C)c2C)c(=O)[nH]1
IC50 [8]: 343000 nM

CCC(C)n1cc(C)c2c(C(=O)NCC3=C(O)NN(CC)C3C)cc(-c3ccc(N4CCNCC4)nc3)cc21 (stereo unspecified)
IC50 [1]: 1470 nM | IC50 [2]: 230 nM

CCN(c1cc(-c2ccc(CN3CCOCC3)cc2)cc(C(=O)NCc2c3c(c(C)[nH]c2=O)CCCC3)c1C)C1CCOCC1
IC50 (SU-DHL-6): 20000 nM | IC50 (Pfeiffer): 19500 nM

CCN(c1cc(-c2ccc(CN3CCOCC3)cc2)cc(C(=O)NCc2c3c(c(C)[nH]c2=O)CCCCC3)c1C)C1CCOCC1
IC50 (SU-DHL-6): > 30000 nM | IC50 (Pfeiffer): 27000 nM

Cc1cc(C)c(CN2CCc3c(Br)c4c(c(C)c3C2=O)OC(C)([C@H]2CC[C@H](N(C)C)CC2)O4)c(=O)[nH]1 (stereo partly specified)
GI50 (KARPAS-422 [5]): 1.2 nM | GI50 (Pfeiffer): 0.21 nM

COc1ccc(C2SCCC(=O)N2Nc2nc3cc(Cl)c(Cl)cc3[nH]2)cc1 (stereo unspecified)
IC50 (MCF7): 76800 nM | IC50 (PC-3): 71800 nM | IC50 (HepG2): 68600 nM

Cc1cc(C)c(CNC(=O)c2cc(-c3ccc(N4CCN(CCOCCC(=O)Nc5cccc6c5C(=O)N(C5CCC(=O)NC5=O)C6=O)CC4)nc3)c3c(cnn3C(C)C)c2)c(=O)[nH]1 (stereo unspecified)
IC50 [3]: 7 nM

CC1=CCOc2c(Br)cc(C(=O)NCc3c(C)cc(C)[nH]c3=O)cc2C1
IC50 [3]: > 1000 nM

CCCc1cc(C)[nH]c(=O)c1CNC(=O)c1cc(-c2ccc(N3CCOCC3)nc2)c2ccn(C(C)C)c2c1C
IC50 [3]: 0.01 nM

Cc1cc(C)c(CNC(=O)c2cc3c(c(-c4ccc(N5CCNCC5)cc4)c2)OC(C)(C)C3)c(=O)[nH]1
IC50 [3]: < 500 nM

CCCc1cc(C)[nH]c(=O)c1CNC(=O)c1cc(-c2ccc(N3CCNCC3)nc2)cc2c([C@H](C)CC)ncn12
IC50 [1]: 8.13 nM | IC50 [2]: 76.1 nM

CCN(c1cc(-c2cnc(N3CCN(C)CC3)nc2)cc2c(NCc3c(C)cc(C)[nH]c3=O)nccc12)[C@H]1CC[C@H](N(C)C)CC1
IC50 [1]: < 5 nM | IC50 (Pfeiffer): 249 nM

C=CCC1(S(=O)(=O)n2nc(C)c3c(C(=O)NCc4c(C)cc(C)[nH]c4=O)cc(-c4ccc(N5CCN(C)CC5)nc4)cc32)CC1
IC50 [1]: 585 nM | IC50 [4]: 2810 nM

O=C1CCSC(c2ccc([N+](=O)[O-])cc2)N1Nc1nc2ccccc2[nH]1 (stereo unspecified)
IC50 (MCF7): 47600 nM | IC50 (PC-3): 64600 nM | IC50 (HepG2): 55800 nM

[2H]C([2H])([2H])Sc1cc(C)[nH]c(=O)c1CNC(=O)c1c(C)n([C@H](C)C2CCC(OC)CC2)c2ccc(-c3cnn(C)c3)cc12 (stereo partly specified)
IC50 [3]: 0.4 nM | IC50 (SU-DHL-6): 71.1 nM

Cc1cc2c(c(=O)[nH]1)CNC(=O)c1cc(Cl)cc3c1c(cn3C(C)C)/C=C/CC2
IC50 [3]: 40 nM

CCCc1cc(C)n(C)c(=O)c1CN(C)C(=O)c1cc(-c2ccc(N3CCN(C(C)C)CC3)nc2)cc2c1CNN2C(C)C
IC50 [3]: 13000 nM

CCN(c1cc(Cl)cc(C(=O)NCc2c[nH]c(C)cc2=O)c1C)[C@H]1CC[C@H](N(C)C)CC1
IC50 [3]: 3 nM

O=C1CCSC(c2ccc(Cl)cc2)N1Nc1nc2ccccc2[nH]1 (stereo unspecified)
IC50 (MCF7): 74300 nM | IC50 (PC-3): 66900 nM | IC50 (HepG2): 53300 nM

Cc1cc(C)c(CNC(=O)c2cc(Br)c3c(c2C)O[C@@](C)([C@H]2CC[C@H](N(C)C)CC2)O3)c(=O)[nH]1
GI50 (KARPAS-422 [5]): 4 nM

C=CC(=O)Nc1nn(Cc2ccccc2)c(C)c1C(=O)NCc1c(C)cc(C)[nH]c1=O
IC50 [3]: 5240 nM

CCN(c1cc(C(=O)NCc2c(OC)cc(C)[nH]c2=O)nc2c(-c3ccnc(N(C)C)c3)cnn12)C1CCOCC1
IC50 [1]: ≤ 100 nM

C[C@H](C(=O)NC1COC1)c1cnc(NC[C@H]2CC[C@H](Nc3ccc4ccnc(Cl)c4n3)CC2)nc1
IC50 (KARPAS-422 [9]): 0.3 nM

CCN(c1cc(C(=O)NCc2c(OC)cc(C)[nH]c2=O)nc2c(-c3ccnc(NC)c3)cnn12)C1CCN(CC(F)(F)F)CC1
IC50 [1]: ≤ 100 nM

CCN(c1cc(Cl)cc2c1C/C=C/CCc1cc(C)[nH]c(=O)c1CNC2=O)C1CCC(F)(F)CC1
IC50 [3]: 16 nM

C=CC(=O)Nc1nn(Cc2ccc(-c3ccccc3)cc2)c(C)c1C(=O)NCc1c(C)cc(C)[nH]c1=O
IC50 [3]: 109 nM

Cc1cc(C)c(CNC(=O)c2cc(-c3ccc(CN4CCN(C)CC4)cc3)cc3c2OCCN3C2CCCCC2)c(=O)[nH]1
IC50 (Pfeiffer): 4210 nM

Cc1cc(C)c(CNC(=O)c2cnn(-c3ccccc3)c2)c(=O)[nH]1
IC50 [8]: > 400000 nM

[2H]C([2H])(NC(=O)c1c(C)n([C@H](C)C2CCC(OC)CC2)c2ccccc12)c1c(SC)cc(C)[nH]c1=O (stereo partly specified)
IC50 [3]: 0.54 nM | IC50 (SU-DHL-6): 9.94 nM

COc1ccc(C2SCCC(=O)N2Nc2nc3cc(C)c(C)cc3[nH]2)cc1 (stereo unspecified)
IC50 (MCF7): 59700 nM | IC50 (PC-3): 66300 nM | IC50 (HepG2): 68300 nM

Cc1cc(-c2ccc(N3CCN(C)CC3)nc2)c2ccc(C(=O)NCc3c(OC(C)C)cc(C)[nH]c3=O)c(C)c2n1
IC50 [1]: 13 nM | IC50 [2]: 1.29 nM

COc1cc(C)[nH]c(=O)c1CN1CCn2ccc3cc(-c4c(C)noc4C)c(Cl)c(c32)C1=O
IC50 (KARPAS-422 [9]): 52 nM | IC50 (WSUDLCL2): 3.8 nM

Cc1cc(Cl)c(CNC(=O)c2cc(Cl)c3c(c2C)OC(C)(C2CCC(N4CC(OC5CC5)C4)CC2)O3)c(=O)[nH]1 (stereo unspecified)
GI50 (KARPAS-422 [5]): 5 nM | EC50 (HeLa): 0.52 nM

COC1CN([C@H]2CC[C@H]([C@@H](C)c3sc4c(c3C)C(=O)N(Cc3c(C)cc(C)[nH]c3=O)CCC4)CC2)C1
IC50 [1]: 0.92 nM | IC50 [10]: 2.65 nM | IC50 [2]: 0.0097 nM

O=C1CCSC(c2ccccc2Cl)N1Nc1nc2ccccc2[nH]1 (stereo unspecified)
IC50 (MCF7): 20300 nM | IC50 (PC-3): 9410 nM | IC50 (HepG2): 13600 nM

CCN(c1cc(-c2ccc(CN3CCOCC3)cc2)cc(C(=O)NCC2C(=O)NC(C)c3cccc(F)c32)c1C)C1CCOCC1 (stereo unspecified)
IC50 [10]: 500 nM

COc1cc2nc(N3CCCN(C)CC3)nc(NC3CCN(Cc4ccccc4)CC3)c2cc1OC
IC50 (MDA-MB-231): 9600 nM

Cc1cc(C)c(CNC(=O)c2cc(Cl)c3c(c2C)O[C@@](C)([C@H]2CC[C@H](N(C)C)CC2)O3)c(=O)[nH]1 [VALEMETOSTAT]
GI50 (KARPAS-422 [5]): 4.8 nM
